Measurements from patent US20250099482A1, “TIP60 NEURO-EPIGENETIC MODULATORS” (Drexel University, priority 2023, published 2025).
pKd: −log10 of the molar value. Entries after “also recorded” stand apart in the source; their conditions may differ.

Columns and labels:
Tip60 = molecular target: T1, Tip60 (Homo sapiens, UniProt Q92993); assay: In vitro histone acetylation activity assay (Tip60); format: biochemical; details: for effect on Tip60's HAT activity (Histone H4 acetylation, fluorescence): 20 μM compound, vs Tip60+DMSO
T1 construct: purchased Active Motif 81975
T1 sequence (Q92993 whole entry): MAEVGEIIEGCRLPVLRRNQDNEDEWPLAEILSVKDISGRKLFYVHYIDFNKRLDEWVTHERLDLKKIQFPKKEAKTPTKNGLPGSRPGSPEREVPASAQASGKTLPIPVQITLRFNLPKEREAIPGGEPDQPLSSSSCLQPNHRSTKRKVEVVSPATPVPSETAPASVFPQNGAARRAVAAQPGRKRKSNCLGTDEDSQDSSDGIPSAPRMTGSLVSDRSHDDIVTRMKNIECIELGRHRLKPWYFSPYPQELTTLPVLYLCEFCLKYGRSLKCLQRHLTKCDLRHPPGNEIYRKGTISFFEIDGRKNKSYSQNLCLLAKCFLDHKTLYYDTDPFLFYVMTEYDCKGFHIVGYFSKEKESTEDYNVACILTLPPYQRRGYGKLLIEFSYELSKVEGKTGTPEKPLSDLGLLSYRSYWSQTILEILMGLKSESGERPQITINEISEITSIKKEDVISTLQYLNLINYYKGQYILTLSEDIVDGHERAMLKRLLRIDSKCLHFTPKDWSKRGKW
Experimental: HAT assays were performed according to manufacturer's instructions in HAT Assay Kit (Active Motif 56100). Briefly, 375 ng Tip60 protein (Active motif: 81975) was incubated with 50 μM Histone H4 peptide, 50 μM Acetyl-CoA and indicated drug concentrations for 30 minutes at room temperature. After stopping the reaction and developing free sulfhydryl groups, […] was recorded at excitation 360-390 nm and emission 460-490 nm using Glomax fluorescence microplate reader. Specific enzyme activity (pmol/min/μg) was calculated by 1. Subtracting background fluorescence from that of assay samples to obtain arbitrary fluorescence units (AFU); and (2) Dividing the difference by the incubation time to obtain AFU/minute. 3. Dividing the AFU/minute by the slope of standard curve in AFU/pmol to obtain the rate in pmol/minute. 4. Dividing pmol/min by the amount of enzyme used to obtain final readings in pmol/minute/μg.

[1] = test system: Drosophila Tip60 knockdown model; assay: Larval line crossing / reaching the wall assay in Tip60-RNAi knockdown model; format: in vivo; details: 3rd instar Tip60-RNAi larvae, compound in fly food
[2] = test system: Drosophila Alzheimer's disease model (APP); assay: Larval line crossing assay in APP Alzheimer's disease model; format: in vivo; details: 3rd instar APP larvae, compound in fly food, range of concentrations
[3] = test system: Drosophila Tip60 knockdown model; assay: In vivo larval locomotor speed assay in Tip60-RNAi knockdown model; details: Tip60-RNAi larvae, compound in fly food, vs DMSO vehicle; for rescue of locomotor ability (larval speed): 10 nM to 100 μM
GST-Tip60 protein = molecular target: T2, GST-Tip60 protein (Homo sapiens, UniProt Q92993); assay: In vitro surface plasma resonance (SPR) Tip60-compound binding; details: for Corrected Response: DMSO corrected
T2 construct: purchased Abcam ab2686960
T2 sequence (Q92993 whole entry): as above
Experimental: SPR protein-compound binding interactions were analyzed on Biacore 3000 biosensor (Global Cytiva Lifesciences) at 25° C. PBS-P (10 mM Phosphate, 150 mM NaCl, pH 7.4, 0.005% P-20) was used as the running buffer and a HAT-optimized binding buffer (50 mM HEPES, pH 7.4, 500 mM NaCl, 0.05% [v/v] Tween 20, 5 mM DTT, 10% [w/v] glycerol, 2% [v/v] DMSO) was used. A CM5 sensor chip was docked and derivatized by amine coupling to capture anti-GST antibody using freshly prepared 1:1 50 mM NHS (N-hydroxysuccinamide): 200 mM EDC (1-ethyl-3-(3-(dimethylamino) propyl) carbodiimide) followed by immobilization of GST-Tip60 protein (Abcam: ab2686960). Direct binding was determined by injecting ligands in duplicates at concentrations spanning 0.0078 μM to 50 μM with running buffer injections in between. DMSO corrections were performed as described previously. The corrected responses were transformed into % bound sites and plotted against the compound concentration. The concentration of Tip60 on the surface was estimated using [Tip60]=response (captured RU)/100*MW. To plot the % bound isotherm as a function of concentration, it is assumed that binding is 1:1 and the following equation is used: % A bound to B is 100AB/Bt=[Kd+At+Bt-SQRT((Kd+At+Bt)2−4*At*Bt)]/(2*Bt) where A=C and B=Tip60.

CCOc1ccccc1C(=O)Nc1cnn(Cc2ccc(C)cc2)c1 [Compound P6, 2-ethoxy-N-(1-(4-methylbenzyl)-1H-pyrazol-4-yl)benzamide]
effect on Tip60's HAT activity (Histone H4 acetylation, fluorescence) (Tip60): enhanced Tip60's HAT activity; also recorded: highest level of Tip60 HAT activation
rescue of Tip60 knockdown induced locomotion deficits (line crossing in 30 seconds) [1]: rescue locomotor speed defect; also recorded: inconsistent rescue results
rescue of AD associated locomotion defects (line crossing, reaching wall) [2]: high rescue overall, its action was inconsistent

O=C(Nc1ccc(Cl)c(C(F)(F)F)c1)c1ccccc1OC[C@@H]1CCCO1 [Compound C2, (S)-N-(4-chloro-3-(trifluoromethyl)phenyl)-2-((tetrahydrofuran-2-yl)methoxy)benzamide]
rescue of locomotor defects (larval speed), performance as compared to CTB [3]: highest performers

COc1ccc(NCc2c(OCc3ccc(F)cc3)ccc3ccccc23)cc1Cl [Compound P9, 3-chloro-N-((2-((4-fluorobenzyl)oxy)naphthalen-1-yl)methyl)-4-methoxyaniline]
effect on Tip60's HAT activity (Histone H4 acetylation, fluorescence) (Tip60): enhanced Tip60's HAT activity

O=C(Nc1ccc(Cl)c(C(F)(F)F)c1)c1ccccc1OC[C@@H]1CCCS1(=O)=O [Compound C7, (S)-N-(4-chloro-3-(trifluoromethyl)phenyl)-2-((1,1-dioxidotetrahydrothiophen-2-yl)methoxy)benzamide]
rescue of locomotor defects (larval speed), performance as compared to CTB [3]: low-performing compounds

Cc1cc(-c2ccccc2)cc(C(=O)NNS(=O)(=O)c2ccccc2)c1F [WM8014, N′-(4-fluoro-5-methyl-[1,1′-bipheny1]-3-carbonyl)benzenesulfonohydrazide]
Subtracted response (GST-Tip60 protein; 0.0078 μM): 8.58
Corrected Response (GST-Tip60 protein; 0.0078 μM): 0.127
Subtracted response (GST-Tip60 protein; 0.023 μM): 7.78
Corrected Response (GST-Tip60 protein; 0.023 μM): 0.1151
Subtracted response (GST-Tip60 protein; 0.07 μM): 7.42
Corrected Response (GST-Tip60 protein; 0.07 μM): 0.1098
Subtracted response (GST-Tip60 protein; 0.21 μM): 7.24
Corrected Response (GST-Tip60 protein; 0.21 μM): 0.1072
Subtracted response (GST-Tip60 protein; 0.63 μM): 7.51
Corrected Response (GST-Tip60 protein; 0.63 μM): 0.1111
Subtracted response (GST-Tip60 protein; 1.85 μM): 8.17
Corrected Response (GST-Tip60 protein; 1.85 μM): 0.1209
Subtracted response (GST-Tip60 protein; 5.56 μM): 11.34
Corrected Response (GST-Tip60 protein; 5.56 μM): 0.1678
Subtracted response (GST-Tip60 protein; 17 μM): 22.255
Corrected Response (GST-Tip60 protein; 17 μM): 0.3294
Subtracted response (GST-Tip60 protein; 50 μM): 61.705
Corrected Response (GST-Tip60 protein; 50 μM): 0.9132

CC(C)Oc1ccccc1C(=O)Nc1ccc(Cl)c(C(F)(F)F)c1 [Compound C6, N-(4-chloro-3-(trifluoromethyl)phenyl)-2-isopropoxybenzamide]
rescue of locomotor defects (larval speed), performance as compared to CTB [3]: low-performing compounds

O=C(Nc1ccc(Cl)c(C(F)(F)F)c1)c1ccccc1OC[C@H]1CCCS1(=O)=O [Compound C8, (R)-N-(4-chloro-3-(trifluoromethyl)phenyl)-2-((1,1-dioxidotetrahydrothiophen-2-yl)methoxy)benzamide]
rescue of locomotor defects (larval speed), performance as compared to CTB [3]: highest performers

O=C(NCc1ccccc1Cn1cncn1)c1cn(Cc2ccccc2)c2ccccc12 [Compound P11, N-(2-((1H-1,2,4-triazol-1-yl)methyl)benzyl)-1-benzyl-1H-indole-3-carboxamide]
effect on Tip60's HAT activity (Histone H4 acetylation, fluorescence) (Tip60): enhanced Tip60's HAT activity

CCOc1ccccc1C(=O)Nc1ccc(Cl)c(C(F)(F)F)c1 [CTB, N-(4-chloro-3-(trifluoromethyl)phenyl)-2-ethoxybenzamide]
% Bound sites (GST-Tip60 protein; 0.0078 μM): 0.05241%
Subtracted response (GST-Tip60 protein; 0.0078 μM): 8.34
Corrected Response (GST-Tip60 protein; 0.0078 μM): 0.1326
% Bound sites (GST-Tip60 protein; 0.023 μM): 0.04999%
Subtracted response (GST-Tip60 protein; 0.023 μM): 7.955
Corrected Response (GST-Tip60 protein; 0.023 μM): 0.1265
% Bound sites (GST-Tip60 protein; 0.07 μM): 0.04921%
Subtracted response (GST-Tip60 protein; 0.07 μM): 7.83
Corrected Response (GST-Tip60 protein; 0.07 μM): 0.1245
% Bound sites (GST-Tip60 protein; 0.21 μM): 0.04955%
Subtracted response (GST-Tip60 protein; 0.21 μM): 7.885
Corrected Response (GST-Tip60 protein; 0.21 μM): 0.1254
% Bound sites (GST-Tip60 protein; 0.63 μM): 0.0526%
Subtracted response (GST-Tip60 protein; 0.63 μM): 8.37
Corrected Response (GST-Tip60 protein; 0.63 μM): 0.1331
% Bound sites (GST-Tip60 protein; 1.85 μM): 0.05923%
Subtracted response (GST-Tip60 protein; 1.85 μM): 9.425
Corrected Response (GST-Tip60 protein; 1.85 μM): 0.1499
% Bound sites (GST-Tip60 protein; 5.56 μM): 0.07928%
Subtracted response (GST-Tip60 protein; 5.56 μM): 12.615
Corrected Response (GST-Tip60 protein; 5.56 μM): 0.2006
% Bound sites (GST-Tip60 protein; 17 μM): 0.1511%
Subtracted response (GST-Tip60 protein; 17 μM): 24.05
Corrected Response (GST-Tip60 protein; 17 μM): 0.3824
% Bound sites (GST-Tip60 protein; 50 μM): 0.4056%
Subtracted response (GST-Tip60 protein; 50 μM): 64.54
Corrected Response (GST-Tip60 protein; 50 μM): 1.026
pKd (GST-Tip60 protein; SPR, 25° C., read-out: KD (dissociation constant)): 4.54
rescue of locomotor ability (larval speed) [3]: significant rescue for locomotor ability
effect on Tip60's HAT activity (Tip60; CTB, low micromolar concentrations): directly enhance Tip60's HAT activity

CCCCCCCCCCCCCCCc1cccc(OCC)c1C(=O)Nc1ccc(Cl)c(C(F)(F)F)c1 [CTPB, N-(4-chloro-3-(trifluoromethyl)phenyl)-2-ethoxy-6-pentadecylbenzamide]
Subtracted response (GST-Tip60 protein; 0.0078 μM): 8.525
Corrected Response (GST-Tip60 protein; 0.0078 μM): 0.1381
Subtracted response (GST-Tip60 protein; 0.023 μM): 8.62
Corrected Response (GST-Tip60 protein; 0.023 μM): 0.1396
Subtracted response (GST-Tip60 protein; 0.07 μM): 8.545
Corrected Response (GST-Tip60 protein; 0.07 μM): 0.1384
Subtracted response (GST-Tip60 protein; 0.21 μM): 8.575
Corrected Response (GST-Tip60 protein; 0.21 μM): 0.1389
Subtracted response (GST-Tip60 protein; 0.63 μM): 8.99
Corrected Response (GST-Tip60 protein; 0.63 μM): 0.1456
Subtracted response (GST-Tip60 protein; 1.85 μM): 10.085
Corrected Response (GST-Tip60 protein; 1.85 μM): 0.1634
Subtracted response (GST-Tip60 protein; 5.56 μM): 13.355
Corrected Response (GST-Tip60 protein; 5.56 μM): 0.2164
Subtracted response (GST-Tip60 protein; 17 μM): 25.005
Corrected Response (GST-Tip60 protein; 17 μM): 0.4051
Subtracted response (GST-Tip60 protein; 50 μM): 66.335
Corrected Response (GST-Tip60 protein; 50 μM): 1.075
rescue of locomotor ability (larval speed) [3]: significant rescue for locomotor ability

CCOCC[C@H](O)COc1ccccc1C(=O)Nc1ccc(Cl)c(C(F)(F)F)c1 [Compound C9, (S)-N-(4-chloro-3-(trifluoromethyl)phenyl)-2-(4-ethoxy-2-hydroxybutoxy)benzamide]
rescue of locomotor defects (larval speed), performance as compared to CTB [3]: low-performing compounds

CCOc1cccc(OCCN(C)C)c1C(=O)Nc1ccc(Cl)c(C(F)(F)F)c1 [Compound C5, N-(4-chloro-3-(trifluoromethyl)phenyl)-2-(2-(dimethylamino)ethoxy)-6-ethoxybenzamide]
rescue of locomotor defects (larval speed), performance as compared to CTB [3]: highest performers

CCOCC[C@@H](O)COc1ccccc1C(=O)Nc1ccc(Cl)c(C(F)(F)F)c1 [Compound C10, (R)-N-(4-chloro-3-(trifluoromethyl)phenyl)-2-(4-ethoxy-2-hydroxybutoxy)benzamide]
rescue of locomotor defects (larval speed), performance as compared to CTB [3]: low-performing compounds

O=C(Nc1ccc(Cl)c(C(F)(F)F)c1)c1ccccc1OCC(=O)N1CCOCC1 [Compound C4, N-(4-chloro-3-(trifluoromethyl)phenyl)-2-(2-morpholino-2-oxoethoxy)benzamide]
rescue of locomotor defects (larval speed), performance as compared to CTB [3]: did not show an effect even at high concentrations

CCOc1ccccc1C(=O)Nc1ccc(Cl)c(C(F)(F)F)c1 [Compound C1, N-(4-chloro-3-(trifluoromethyl)phenyl)-2-ethoxybenzamide]
rescue of locomotor defects (larval speed), performance as compared to CTB [3]: low-performing compounds

O=C(Nc1ccc(Cl)c(C(F)(F)F)c1)c1ccccc1OC[C@H]1CCCO1 [Compound C3, (R)-N-(4-chloro-3-(trifluoromethyl)phenyl)-2-((tetrahydrofuran-2-yl)methoxy)benzamide]
rescue of locomotor defects (larval speed), performance as compared to CTB [3]: low-performing compounds
